In patent publication US10441587B2, “Treatment of lung cancer with inhibitors of glutaminase” (Calithera Biosciences, Inc., priority 2015, dated 2019):

How the values were obtained:
[1] = system: A549 (CALA); assay: Sensitivity of NSCLC cell line to CB-839; format: cell-based; conditions: KRAS G12S, no amp, EGFR wt, n 2
[2] = system: H2023 (CALA); assay: Sensitivity of NSCLC cell line to CB-839; format: cell-based; conditions: KRAS wt, no amp, EGFR wt, n 3
[3] = system: H1568 (CALA); assay: Sensitivity of NSCLC cell line to CB-839; format: cell-based; conditions: KRAS wt, no amp, EGFR wt, n 4
[4] = system: H358 (CALA); assay: Sensitivity of NSCLC cell line to CB-839; format: cell-based; conditions: KRAS G12C, no amp, EGFR wt, n 4
[5] = system: H2030 (CALA); assay: Sensitivity of NSCLC cell line to CB-839; format: cell-based; conditions: KRAS G12C, no amp, EGFR wt, n 3
[6] = system: H2122 (CALA); assay: Sensitivity of NSCLC cell line to CB-839; format: cell-based; conditions: KRAS G12C, no amp, EGFR wt, n 5
[7] = system: H2347 (CALA); assay: Sensitivity of NSCLC cell line to CB-839; format: cell-based; conditions: KRAS L19F, no amp, EGFR wt, n 3
[8] = system: H23 (CALA); assay: Sensitivity of NSCLC cell line to CB-839; format: cell-based; conditions: KRAS G12C, AMP, EGFR wt, n 4
[9] = system: H1703 (CALA); assay: Sensitivity of NSCLC cell line to CB-839; format: cell-based; conditions: KRAS wt, AMP, EGFR wt, n 4
[10] = system: HCC827 (CALA); assay: Sensitivity of NSCLC cell line to CB-839; format: cell-based; conditions: KRAS wt, no amp, EGFR exon 19 deletion, n 3
[11] = system: H441 (CALA); assay: Sensitivity of NSCLC cell line to CB-839; format: cell-based; conditions: KRAS G13V, AMP, EGFR wt, n 3
[12] = system: H661 (CALA); assay: Sensitivity of NSCLC cell line to CB-839; format: cell-based; conditions: KRAS wt, AMP, EGFR wt, n 3
[13] = system: H1437 (CALA); assay: Sensitivity of NSCLC cell line to CB-839; format: cell-based; conditions: KRAS wt, no amp, EGFR wt, n 3
[14] = system: H647 (CALA); assay: Sensitivity of NSCLC cell line to CB-839; format: cell-based; conditions: KRAS G13D, no amp, EGFR wt, n 3
[15] = system: H1650 (CALA); assay: Sensitivity of NSCLC cell line to CB-839; format: cell-based; conditions: KRAS wt, no amp, EGFR exon 19 deletion, n 1
[16] = system: H1975 (CALA); assay: Sensitivity of NSCLC cell line to CB-839; format: cell-based; conditions: KRAS wt, no amp, EGFR L858R/T790M, n 4
[17] = system: H226 (CALA); assay: Sensitivity of NSCLC cell line to CB-839; format: cell-based; conditions: KRAS wt, no amp, EGFR wt, n 4
[18] = system: H2073 (CALA); assay: Sensitivity of NSCLC cell line to CB-839; format: cell-based; conditions: KRAS wt, no amp, EGFR wt, n 3
[19] = system: H1563 (CALA); assay: Sensitivity of NSCLC cell line to CB-839; format: cell-based; conditions: KRAS wt, no amp, EGFR wt, n 4
[20] = system: H1299 (CALA); assay: Sensitivity of NSCLC cell line to CB-839; format: cell-based; conditions: KRAS wt, no amp, EGFR wt, n 3
[21] = system: H2085 (CALA); assay: Sensitivity of NSCLC cell line to CB-839; format: cell-based; conditions: KRAS wt, no amp, EGFR no data, n 3
[22] = system: H838 (CALA); assay: Sensitivity of NSCLC cell line to CB-839; format: cell-based; conditions: KRAS wt, AMP, EGFR wt, n 3
[23] = system: H1693 (CALA); assay: Sensitivity of NSCLC cell line to CB-839; format: cell-based; conditions: KRAS wt, no amp, EGFR wt, n 3
[24] = system: ChaGo-K1 (CALA); assay: Sensitivity of NSCLC cell line to CB-839; format: cell-based; conditions: KRAS wt, no amp, EGFR wt, n 3
[25] = system: H2122 lung adenocarcinoma xenograft; assay: Lung adenocarcinoma xenograft efficacy study; format: in vivo; conditions: H2122 xenograft in scid/beige mice; 200 mg/kg orally BID for 23 days; vs vehicle
Description: Female scid/beige mice (n═20) age 6-8 weeks were implanted subcutaneously with 1×10^7 H2122 lung adenocarcinoma cells per mouse suspended in PBS. Mice were randomized into the following two groups of n=10 mice/group: 1) Vehicle control (25% Hydroxypropyl-β-cyclodextrin) and 2) Compound 670 dosed orally at 200 mg/kg (formulated at 20 mg/mL in 25% HP-β-CD). For both groups, dosing was initiated 24 hours post-implant and continued orally BID for 23 days. Tumors were measured with calipers three times per week and tumor volume calculated using the formula tumor volume (mm^3)=(a×b^2/2) where ‘b’ is the smallest diameter and ‘a’ is the largest perpendicular diameter. **P-value<0.01 (Two-sided T-test).

[26] = system: non-small cell lung cancer cell lines exhibiting a KRAS mutation; assay: Sensitivity of non-small cell lung cancer cell lines by mutation status; format: cell-based; conditions: KRAS-mutant vs wild-type non-small cell lung cancer cell lines; arrested growth and/or cell death

O=C(Cc1cccc(OC(F)(F)F)c1)Nc1ccc(CCCCc2nnc(NC(=O)Cc3ccccn3)s2)nn1 [compound 670]
Sensitivity to CB-839 average [1]: −68.565
Sensitivity to CB-839 average [2]: −47
Sensitivity to CB-839 average [3]: −38
Sensitivity to CB-839 average [4]: −34
Sensitivity to CB-839 average [5]: −30
Sensitivity to CB-839 average [6]: −28.637
Sensitivity to CB-839 average [7]: −14
Sensitivity to CB-839 average [8]: −13
Sensitivity to CB-839 average [9]: −10
Sensitivity to CB-839 average [10]: −9
Sensitivity to CB-839 average [11]: −2.67
Sensitivity to CB-839 average [12]: 1.33
Sensitivity to CB-839 average [13]: 8.33
Sensitivity to CB-839 average [14]: 18.267
Sensitivity to CB-839 average [15]: 19
Sensitivity to CB-839 average [16]: 22.225
Sensitivity to CB-839 average [17]: 38.75
Sensitivity to CB-839 average [18]: 57.67
Sensitivity to CB-839 average [19]: 61.5
Sensitivity to CB-839 average [20]: 68.67
Sensitivity to CB-839 average [21]: 80.667
Sensitivity to CB-839 average [22]: 82
Sensitivity to CB-839 average [23]: 82.67
Sensitivity to CB-839 average [24]: 86
tumor size [25]: reduced tumor size
sensitivity to treatment versus wild-type cell lines [26]: more sensitive
